Among the data in patent publication US8324186B2, “4-azetidinyl-1-heteroatom linked-cyclohexane antagonists of CCR2” (Janssen Pharmaceutica N.V., priority 2009, dated 2012) are IC50 values, retold here.

T1 sequence (P41597 whole entry): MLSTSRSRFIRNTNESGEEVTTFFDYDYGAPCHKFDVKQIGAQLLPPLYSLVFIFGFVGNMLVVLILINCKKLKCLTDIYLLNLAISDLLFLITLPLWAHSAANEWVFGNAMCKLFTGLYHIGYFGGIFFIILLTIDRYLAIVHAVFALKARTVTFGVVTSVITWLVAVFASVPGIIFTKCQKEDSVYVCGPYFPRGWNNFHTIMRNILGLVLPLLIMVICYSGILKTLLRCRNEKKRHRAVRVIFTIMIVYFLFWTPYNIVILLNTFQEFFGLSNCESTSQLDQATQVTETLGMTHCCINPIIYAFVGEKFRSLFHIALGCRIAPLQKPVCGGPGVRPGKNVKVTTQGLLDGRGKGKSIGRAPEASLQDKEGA

This assay concerns the target T1, CCR2 (Homo sapiens, UniProt P41597).
T1 construct: host or cells: THP-1 human monocytic cells
As to the kind of experiment: MCP-1 Receptor Binding Assay in THP-1 Cells (125I-MCP-1 displacement). The following applies: 0.5 nM 125I labeled MCP-1, 2 hours at 30° C., read-out: CCR2 Binding, Inhibition of MCP-1 Binding IC50. How it is done:
Compounds of the invention were subjected to various representative biological tests. The results of these tests are intended to illustrate the invention in a non-limiting fashion. MCP-1 Receptor Binding Assay in THP-1 Cells
Human monocytic cell line THP-1 cells were obtained from American Type Culture Collection (Manassas, Va., USA). The THP-1 cells were grown in RPMI-1640 (RPMI: Roswell Park Memorial Institute Medium-cell culture growth media) supplemented with 10% fetal bovine serum in a humidified 5% CO2 atmosphere at 37° C. The cell density was maintained […].
THP-1 (cells were incubated with 0.5 nM ^125I labeled MCP-1 (Perkin-Elmer Life Sciences, Inc. Boston, Mass.) in the presence of varying concentrations of either unlabeled MCP-1 (R & D Systems, Minneapolis, Minn.) or test compound for 2 hours at 30° C. in a 96 well plate. Cells were then harvested onto a filter plate, dried, and 20 μL of Microscint 20 was added to each well. Plates were counted in a TopCount NXT, Microplate Scintillation & Luminescence Counter (Perkin-Elmer Life Sciences, Inc. Boston, Mass.). Blank values (buffer only) were subtracted from all values and drug treated values were compared to vehicle treated values. 1 μM cold MCP-1 was used for nonspecific binding.
Table 1 lists IC50 values for inhibition of MCP-1 binding to CCR2 obtained for test compounds of the invention. Where an IC50 value was not obtained for a particular compound, the percent inhibition is provided at a test concentration of 25 μM.
By IC50 is commonly meant the midpoint of a concentration-inhibition curve. As to `Cc1cnn(C2CCC(N3CC(NC(=O)CNC(=O)c4cccc(C(F)(F)F)c4)C3)CC2)c1` (single isomer, unassigned) [Example 27a, N-({1-[4-(4-Methyl-pyrazol-1-yl)-cyclohexyl]-azetidin-3-ylcarbamoyl}-methyl)-3-trifluoromethyl-benzamide], the IC50 amounted to 170 nM.
Next, `Cc1ccc(C)n1C1CCC(N2CC(NC(=O)CNC(=O)c3cccc(C(F)(F)F)c3)C2)CC1` (stereo not shown) [Example 37, N-({1-[4-(2,5-Dimethyl-pyrrol-1-yl)-cyclohexyl]-azetidin-3-ylcarbamoyl}-methyl)-3-trifluoromethyl-benzamide]: 9000 nM; `O=C(CNC(=O)c1cccc(C(F)(F)F)c1)NC1CN(C2CCC(n3ccnc3)CC2)C1` (single isomer, unassigned) [Example 31a, N-{[1-(4-Imidazol-1-yl-cyclohexyl)-azetidin-3-ylcarbamoyl]-methyl}-3-trifluoromethyl-benzamide]: 340 nM.
Next, `O=C(CNC(=O)c1cccc(C(F)(F)F)c1)NC1CN(C2CCC(Oc3ccccn3)CC2)C1` (single isomer, unassigned) [Example 2a, N-({1-[4-(Pyridin-2-yloxy)-cyclohexyl]-azetidin-3-ylcarbamoyl}-methyl)-3-trifluoromethyl-benzamide]: 230 nM; `Cc1ccn(C2CCC(N3CC(NC(=O)CNC(=O)c4cccc(C(F)(F)F)c4)C3)CC2)c(=O)c1` (stereo not shown) [Example 20, N-({1-[4-(4-Methyl-2-oxo-2H-pyridin-1-yl)-cyclohexyl]-azetidin-3-ylcarbamoyl}-methyl)-3-trifluoromethyl-benzamide]: 110 nM.
In the case of `Cc1ccc(=O)n(C2CCC(N3CC(NC(=O)CNC(=O)c4cccc(C(F)(F)F)c4)C3)CC2)c1` (stereo not shown) [Example 11, N-({1-[4-(5-Methyl-2-oxo-2H-pyridin-1-yl)-cyclohexyl]-azetidin-3-ylcarbamoyl}-methyl)-3-trifluoromethyl-benzamide], the IC50 came to 280 nM.
Next, `O=C(CNC(=O)c1cccc(C(F)(F)F)c1)NC1CN(C2CCC(Oc3nsc4ccccc34)CC2)C1` (single isomer, unassigned) [Example 34a, N-({1-[4-(Benzo[d]isothiazol-3-yloxy)-cyclohexyl]-azetidin-3-ylcarbamoyl}-methyl)-3-trifluoromethyl-benzamide]: 290 nM.
Next, `O=C(CNC(=O)c1cccc(C(F)(F)F)c1)NC1CN(C2CCC(NC(=O)Nc3ccc4c(c3)OCO4)CC2)C1` (stereo not shown) [Example 36, N-({1-[4-(3-Benzo[1,3]dioxol-5-yl-ureido)-cyclohexyl]-azetidin-3-ylcarbamoyl}-methyl)-3-trifluoromethyl-benzamide]: 1500 nM.
For the compound `O=C(CNC(=O)c1cccc(C(F)(F)F)c1)NC1CN(C2CCC(Oc3ccc4c(c3)OCO4)CC2)C1` (stereo not shown) [Example 33, N-({1-[4-(Benzo[1,3]dioxol-5-yloxy)-cyclohexyl]-azetidin-3-ylcarbamoyl}-methyl)-3-trifluoromethyl-benzamide], the IC50 turned out to be 410 nM.
Next, `O=C(CNC(=O)c1cccc(C(F)(F)F)c1)NC1CN(C2CCC(n3ncc4ccccc43)CC2)C1` (single isomer, unassigned) [Example 32a, N-{[1-(4-Indazol-1-yl-cyclohexyl)-azetidin-3-ylcarbamoyl]-methyl}-3-trifluoromethyl-benzamide]: 510 nM; `O=C(CNC(=O)c1cccc(C(F)(F)F)c1)NC1CN(C2CCC(NC(=O)c3ccc4c(c3)OCO4)CC2)C1` (stereo not shown) [Example 35, Benzo[1,3]dioxole-5-carboxylic acid (4-{3-[2-(3-trifluoromethyl-benzoylamino)-acetylamino]-azetidin-1-yl}-cyclohexyl)-amide]: 430 nM; `O=C(CNC(=O)c1cccc(C(F)(F)F)c1)NC1CN(C2CCC(Oc3cccnn3)CC2)C1` (stereo not shown) [Example 23, N-({1-[4-(Pyridazin-3-yloxy)-cyclohexyl]-azetidin-3-ylcarbamoyl}-methyl)-3-trifluoromethyl-benzamide]: 410 nM.
For the compound `O=C(CNC(=O)c1cccc(C(F)(F)F)c1)NC1CN(C2CCC3(CC2)OCc2ccccc23)C1` (single isomer, unassigned) [Example 41a, N-[(1-3′H-Spiro[cyclohex-1,1′-isobenzofuran]-4-yl-azetidin-3-ylcarbamoyl)-methyl]-3-trifluoromethyl-benzamide], the IC50 is 80 nM.
